Reference: patent publication US10314851B2, “Metakaryocidal treatments” (Massachusetts Institute of Technology, priority 2014, dated 2019)
Read-outs that look alike come from different tables or passages of the source.

Tested on: HT-29 cells
Source text: Applicants next sought means to test nominated drugs (also referred to herein as candidate agents) using human cell cultures, particularly cell cultures derived from human tumors in which they discovered metakaryotic cells driving net growth and differentiation of such cultures by symmetric and asymmetric amitotic divisions.
The metakaryotic and pre-metakaryotic cells of cell lines derived from human tumors are capable of unlimited division when plated as single cells on plastic or glass surfaces. However, most cells in such cell lines are eukaryotic cells capable of limited cell growth which growth cannot give rise to immortal colonies or populations of cells. This quality permits the line to be used in quantitative assays of cell killing important for distinguishing among agents and regimens that kill metakaryotic cells in preference to eukaryotic cells and vice versa.
Single cells betray different fates. […] Applicants interpret these colonies and derived immortal populations to be the descendants of single metakaryotic or pre-metakaryotic stem cells.
Colonies of limited size between 1 and 2^11 cells are interpreted to be the products of growth of transition cell tiers three through eleven.
In this reproducible behavior the human tumor cell lines offered a means to test agents for metakaryocidal activity: metakaryocidal agents and regimens would reduce or eliminate the appearance of large colonies that could be propagated by serial trypsinized transfer. […] An example of this kind of assay is illustrated in FIGS. 1, 2 and 3.
In particular drugs evaluated were reported to overcome “multidrug resistance” giving special priority to drugs that suppressed “multidrug resistance” (MDR).
Shown in FIGS. 1-3 are images of quantitative trials of different regimens (initial concentration, duration of exposure) of metformin in clonal assays using HT-29 cells. […] FIG. 1 is a photograph illustrating the experimental design for testing metformin as a metakaryocide in vitro.
FIG. 2 depicts a table of the recorded colony counts on each of the flasks of the first image.
The Y-axis is the number of colonies on each test flask enumerated in FIG. 2 while the X-axis is the product of metformin concentration (micromolar) times the duration of the HT-29 cells to the drug (weeks).

| SMILES | metakaryocidal effect (survival vs. concentration x duration function) (tests of some sixteen drugs, compared with metformin) | concentration above which surviving large colonies are not immortal and do not contain metakaryotic stem cells (HT-29, FIG. 1, five weeks) | concentration x duration of exposure at which elimination of metakaryotic cell-containing immortal colonies is reached (HT-29, FIG. 3) | concentration x duration of exposure below which killing of mortal colonies is not observed (HT-29, FIG. 3) | survival fraction of the metformin-sensitive population (metakaryotic cells) (HT-29, at ~200 μM weeks) | total large colony numbers reduced to a level less than in untreated control flasks (HT-29, colonies five weeks after seeding, treated from day one for one, two or five weeks, concentration x duration treatments shown with green counts in FIG. 2) | concentration at which surviving large colonies are not immortal and do not contain metakaryotic stem cells (HT-29, five weeks exposure) | concentration above which surviving large colonies are not immortal and do not contain metakaryotic stem cells (HT-29, one week exposure) | expected survival of metakaryotic cells (extrapolated from FIG. 3, treatment of ~400 μM weeks) |
| --- | --- | --- | --- | --- | --- | --- | --- | --- | --- |
| COC(=O)[C@H]1[C@H]2C[C@@H]3c4[nH]c5cc(OC)ccc5c4CCN3C[C@H]2C[C@@H](OC(=O)c2cc(OC)c(OC)c(OC)c2)[C@@H]1OC [reserpine] | no detectable effect as a metakaryocide |  |  |  |  |  |  |  |  |
| CN(C)C(=N)N=C(N)N [metformin] |  | > 100 µM | ~200 micromolar-weeks | about 2000 micromolar weeks | 10^−2 | about 10% | 800 µM | > 1600 µM | 10^−4 |
